One series has as its system HCoV-229E. The experiment in a line: microbe, parasite or virus in culture. The following applies: for EC50: Human coronavirus 229E, MRC5, 144 h, read-out: HCoV-229E EC50. Format: cell-based.
Series [1] deals with SARS-CoV-2. As to the kind of experiment: Virus yield reduction assay of SARS-CoV-2 in Calu-3 cells. The series is classed as cell-based. The following applies: MOI 0.01, 36 h p.i., titration on Vero E6.
The subject of series [2] is SARS-CoV-2. As to the kind of experiment: Plaque reduction assay. The series is classed as cell-based, SARS-CoV-2/NL/2020 strain. The following applies: ratio between CC50 and EC50; SARS-CoV-2, Vero E6 cells. Background: In a plaque reduction assay, fewer plaques than in the control indicate reduced infectivity or spread.
Series [3] is described as follows: MTT cell viability assay in Vero E6 cells. The series is classed as cell-based. The settings on record: African green monkey. For orientation: Formazan colour is commonly taken as a measure of viable cells.
The subject of the next series is HCoV-OC43. The experiment in a line: Plaque reduction assay against HCoV-OC43 in MRC-5 cells. The series is classed as cell-based. The following applies: infected MRC-5 cells.
The next series has as its target SARS-CoV-2 M^pro (Severe acute respiratory syndrome coronavirus 2, UniProt P0DTD1). The experiment in a line: FRET-based SARS-CoV-2 M^pro activity assay in vitro. Format: biochemical. The following applies: for Inhibitory effect on M^pro catalytic activity at fixed concentration: 100 μM, cut-off 50% of inhibition; for Fold increase of inhibitory potency against M^pro compared to parental hit 7: compared to hit 7.

A short description of series [4]: MTT cell viability assay in MRC-5 cells. The series is classed as cell-based. The following applies: human.
Series [5] has as its system SARS-CoV-2 M^pro (NanoLuc-nsp4-M^pro fusion protein). The series is classed as cell-based.
Series [6] concerns SARS-CoV-2. The experiment in a line: Time-of-addition experiments with SARS-CoV-2 in Vero E6 cells. The settings on record: 50 μM, added at +4 h p.i. Format: cell-based.

SMILES strings stand for the structures.

In the case of `O=C(Nc1ccc2c(c1)OCO2)c1nnc(C(=O)N2CCCC(C(=O)NCc3ccccc3)C2)s1` (stereo not drawn) [Compound 5], in the series on HCoV-229E, the “Activity towards HCoV-229E” value is recorded as “retained activity” and the EC50 (as a rule, the midpoint of the concentration-response curve) worked out at 10.4 ± 4.1 µM. Also, in the series with SARS-CoV-2 [1], the “SARS-CoV-2 titers in supernatants of infected and treated Calu-3 cells” value (from here on “SARS-CoV-2 titers in supernatants”) is listed as “significantly reduced SARS-CoV-2 titers”. Moreover, the “SI, Selectivity Index” value in the series with SARS-CoV-2 [2] was determined as 29. In addition, the cytotoxic concentration (CC50) (as a rule, the concentration at which the toxic effect on the cells reaches its halfway point) at 72 h in series [3] was 207 ± 14 µM. Moreover, the “Activity towards HCoV-OC43” value in the series with HCoV-OC43 was “retained activity”. Moreover, on SARS-CoV-2 M^pro, the midpoint of inhibition, the IC50, lay at 29 ± 3.7 µM and the “Inhibitory effect on M^pro catalytic activity at fixed concentration” value (“Inhibitory effect” below) was “exerted an inhibitory effect”. The compound also registered a CC50 at 72 h in [4] of 100 ± 11.9 µM.

For `CC(C)(C)NC(=O)N[C@H](C(=O)N1C[C@H]2[C@@H]([C@H]1C(=O)NC(CC1CCC1)C(=O)C(N)=O)C2(C)C)C(C)(C)C` (stereo partly drawn) [BOC, Boceprevir, reference compound], the CC50 at 72 h in [3] was above 500 µM. The “Inhibition of proteolytic cleavage of NanoLuc-nsp4-M^pro in cells” value (shortened to “Inhibition”) in series [5] is given as “not detected”.

For `CCC(C)C(NC(=O)C1N2C(=O)c3ccccc3C2SC1(C)C)C(=O)NC(CO)C(C)C` (stereo not drawn) [Compound 6], in the series on HCoV-229E, the “Activity towards HCoV-229E” value is recorded as “retained activity” and the concentration for a half-maximal effect (EC50) amounted to 22.9 ± 4.9 µM. Also, in the series with SARS-CoV-2 [1], the “SARS-CoV-2 titers in supernatants” value was “significantly reduced SARS-CoV-2 titers”. In series [3], this compound showed a CC50 at 72 h above 500 µM. The “Activity towards HCoV-OC43” value in the series on HCoV-OC43 was “retained activity”. At SARS-CoV-2 M^pro, the 50% inhibitory concentration (IC50) (as a rule, the concentration at which inhibition is half-maximal) is above 100 µM and the “Inhibitory effect” value is reported as “not a significant inhibitory effect”. For the same compound, the half-maximal cytotoxic concentration (CC50) at 72 h in series [4] is above 500 µM.

Consider `CC(C)[C@H](NC(=O)c1ccccc1NC(=O)c1ccccc1)C(=O)N[C@H](CO)C(C)C` [Compound 36, 2-Benzamido-N-((S)-1-(((S)-1-hydroxy-3-methylbutan-2-yl)amino)-3-methyl-1-oxobutan-2-yl)benzamide], for which, in the series on SARS-CoV-2 [6], the “Time-of-addition: effect of addition at 4 h p.i.” value was “still exerted an antiviral effect”. The “SARS-CoV-2 titers in supernatants” value with SARS-CoV-2 [1] is recorded as “confirmed active”. Besides, the “SI, Selectivity Index” value with SARS-CoV-2 [2] is given as above 192. Moreover, the CC50 at 72 h in series [3] is above 250 µM. Also, on SARS-CoV-2 M^pro, the IC50 is 42.9 ± 8.3 µM and the “Fold increase of inhibitory potency against M^pro compared to parental hit 7” value is listed as above 2 fold. Besides, the “Inhibition” value in series [5] is “dose-dependent inhibition of the proteolytic cleavage”.

On to `CCC(C)NC(=O)c1ccccc1NC(=O)c1cccc(S(=O)(=O)Nc2ccccc2)c1` (stereo not drawn) [Compound 29], for which, in the series on HCoV-229E, the “Activity towards HCoV-229E” value is on record as “retained activity” and the EC50 was found to be 15.7 ± 4.8 µM. Moreover, the CC50 at 72 h in series [3] was above 500 µM. The “Activity towards HCoV-OC43” value in the series on HCoV-OC43 was “retained activity”. For the same compound, at SARS-CoV-2 M^pro, the “Inhibitory effect” value is recorded as “not a significant inhibitory effect”. The compound further had a CC50 at 72 h in series [4] above 250 µM.

On to `CCOc1ccccc1NC(=O)C(=O)NCC(c1cccnc1)N1CCN(c2ccccc2)CC1` (stereo not drawn) [Compound 3], for which the “Activity towards HCoV-229E” value with HCoV-229E is “retained activity”. Besides, the 50% effective concentration (EC50) with HCoV-229E is 34.6 ± 8.5 µM. For the same compound, the “SI, Selectivity Index” value in the series on SARS-CoV-2 [2] is listed as above 40. The CC50 at 72 h in [3] and in series [4] was above 500 µM in each case. Also, the “Activity towards HCoV-OC43” value in the series with HCoV-OC43 is on record as “retained activity”. The “Inhibitory effect” value at SARS-CoV-2 M^pro was “not a significant inhibitory effect”.

`CC(C)[C@H](NC(=O)c1ccccc1NC(=O)c1ccccn1)C(=O)N[C@H](CO)C(C)C` [Compound 37, N-(2-(((S)-1-(((S)-1-Hydroxy-3-methylbutan-2-yl)amino)-3-methyl-1-oxobutan-2-yl)carbamoyl)phenyl)picolinamide]: the “Time-of-addition: effect of addition at 4 h p.i.” value in the series on SARS-CoV-2 [6] is “still exerted an antiviral effect”. Further, the “SARS-CoV-2 titers in supernatants” value in the series on SARS-CoV-2 [1] was “confirmed active”. The “SI, Selectivity Index” value with SARS-CoV-2 [2] is on record as above 119. In series [3], the CC50 at 72 h was above 250 µM. Besides, on SARS-CoV-2 M^pro, the IC50 was 41.3 ± 7.6 µM and the “Fold increase of inhibitory potency against M^pro compared to parental hit 7” value is reported as above 2 fold. Further, the “Inhibition” value in [5] is on record as “dose-dependent inhibition of the proteolytic cleavage”.

For `NC(=O)c1c(NC(=O)c2cnn3c(C(F)(F)F)cc(-c4ccccc4)nc23)sc2c1CCCC2` [Compound 25], the EC50 in the series on HCoV-229E is above 25 µM. The “SARS-CoV-2 titers in supernatants” value with SARS-CoV-2 [1] is on record as “significantly reduced SARS-CoV-2 titers”. In addition, the “SI, Selectivity Index” value in the series on SARS-CoV-2 [2] is recorded as above 31. For the same compound, the CC50 at 72 h in series [3] and in [4] was above 250 µM each time. In the series on HCoV-OC43, the “Activity towards HCoV-OC43” value is “retained activity”. Also, the IC50 against SARS-CoV-2 M^pro is 26.6 ± 7.4 µM. At SARS-CoV-2 M^pro, the “Inhibitory effect” value is reported as “exerted an inhibitory effect”.

As for `O=C(NCc1ccc(F)cc1)C(=O)NCC(c1cccnc1)N1CCN(c2ccccc2)CC1` (stereo not drawn) [Compound 4], the “Activity towards HCoV-229E” value with HCoV-229E was “retained activity”. Moreover, in the series on HCoV-229E, the concentration giving a half-maximal response (EC50) worked out at 23.8 ± 9.9 µM. Further, in the series with SARS-CoV-2 [2], the “SI, Selectivity Index” value is above 24. The CC50 at 72 h was above 500 µM in [3] and 300 ± 18 µM in series [4]. In addition, the “Activity towards HCoV-OC43” value in the series with HCoV-OC43 is recorded as “retained activity”. Moreover, at SARS-CoV-2 M^pro, the “Inhibitory effect” value was “not a significant inhibitory effect”.

Turning to `CCC(CC)COC(=O)[C@H](C)N[P@](=O)(OC[C@H]1O[C@@](C#N)(c2ccc3c(N)ncnn23)[C@H](O)[C@@H]1O)Oc1ccccc1` [RMV, remdesivir, reference compound], in the series with HCoV-229E, the EC50 was determined as 0.09 ± 0.03 µM. Further, the CC50 at 72 h in [3] is above 250 µM.

Source of the values: paper PMC9172283 (Antiviral Research, 2022).
